Source: patent US20050043262A1, “Novel specific inhibitor of the cyclin kinase inhibitor p21Waf1/Cip1 and methods of using the inhibitor” (priority 2000, published 2005)
In the oligonucleotide strings, read from the 5' end, every base follows the letter of its sugar. An asterisk marks phosphorothioate; unmarked linkages are phosphodiester. Other units and linkages are bracketed, terminal groups are in braces. A string of capitals states the bases alone. d = 2'-deoxy (DNA)

Assays:
p21 [1] = test: p21 level in MCF7 cells (immunoblot, immunohistochemistry); format: cell-based, human; conditions: for p21 level by immunoblot: 200 or 400 nM, 24 hours after transfection
Method: (§1) Antisense Transfections: […] (Wilsonville, Oreg.). The human p21 antisense ODN sequence was [NT] ID NO.: 4). The randomly scrambled sequence of control ODN was [NT] ID NO.: 3), and the second control ODN (used for the experiment depicted in FIG. 34 was the sense human p21 sequence [NT] ID NO.: 5). For the transfection procedure, cells were grown to 70% confluence and washed with sterile PBS, and the ODNs (200 or 400 nM) were mixed with 6.6 μl Lipofectin/ml Opti-MEM media and added to the cells for 5 hours at 37° C. Serum-free media (without ODNs) were added overnight, the media were changed in the morning, and the cells were stimulated with serum or platelet-derived growth factor-BB as indicated. Immunoblotting: For FIGS. 27A and B, aliquots of each breast tumor (7) and corresponding normal (N) tissue were homogenized and subjected to immunoblotting with full-length p21 antibody and α-actin as a loading control. Density of p21 and actin bands was determined and reported as a ratio. HeLa cell nuclear extract was electrophoresed on the same gel as a positive control for p21 mobility. The samples of breast cancer tissues were cut into small pieces and rapidly homogenized in lysis buffer (1 ml/ mg) at 4° C. Cells from cell lines were grown to confluence in 60-mm culture dishes, and after incubation under appropriate conditions, the cells were washed with PBS and lysed in lysis buffer at 4° C. The tissue homogenates or cell lysates were centrifuged (13,000× g, 4° C., 10 min), and the supernatants were Western blotted as described previously (Weiss, […]., and Ramirez, A., Am. J. Physiol., 274: […]-[…], 1998). Densitometry was analyzed using NIH Image. […] Percentage of cytoplasmic and nuclear staining, intensity of staining (using a scale of 0 to 3+), and tumor grading using a modified Bloom-Richardson combined histological grade were determined by a breast pathologist. […] A and B, the cells were lysed, and equal protein quantities (20 μg) were electrophoresed and immunoblotted with p21 antibody. […] Density of p21 and MAPK bands was determined and reported as a ratio. […]

p21 [2] = test: p21 level in T47D cells (immunoblot, immunohistochemistry); format: cell-based, human; conditions: for p21 level by immunoblot: 200 or 400 nM, 24 hours after transfection
Method: as §1

Met-1 cells = test: Growth of Met-1 cells in culture; format: cell-based, mouse; conditions: transfection
A431 cells = test: [3H]thymidine incorporation (DNA synthesis) in A431 cells; format: cell-based, human
Method: FIG. 9A-D are bar graphs showing Antisense p21^Waf1/Cip1 oligodeoxynucleotide has no significant effect DNA synthesis in PMA-inhibitable A431 cells, as described in Example II, infra. […] A431 cells were placed in serum-free medium overnight and then stimulated with (A) PDGF-BB (30 ng/ml), (B) 10% serum-containing medium, or (C) PDGF-BB or PMA (100 ng/ml) for another 8 hours before [^3H]-thymidine was added for overnight incubation. (D) A10 VSM cells were transfected with sense and antisense p21^Waf1/Cip1 oligonucleotides as above and treated similarly to (B). DNA synthesis was assessed by [^3H]-thymidine incorporation and is expressed as mean ±s.e.m. of three wells per data point. The absolute counts differ between experiments due to different confluency of the cells. The experiments shown are representative of two separate experiments.
Cell culture and DNA synthesis: Cultures of A10 and A431 cells were obtained from American Type Culture Collection (Rockville Md), were maintained as described (Weiss et al. 1998, Am. J. Physiol. 274, C1521-C1529), and were used between passages 15 and 24 or 25 and 35, respectively. The cells were growth-arrested by placing them in serum-free quiescence medium, exposed to growth factors as indicated, and [^3H]thymidine incorporation assessed as previously described (Weiss and Nuccitelli, 1992, J. Biol. Chem. 267, 5608-5613).
This A431 data is in contrast with that obtained in a variety of VSM cell lines, where cell growth was inhibited by similar oligodeoxynucleotide concentrations in cell stimulated with both PDGF-BB and serum (FIG. 9d).

[3] = compared with random sequence ODN

5′-ATC-CCC-AGC-CGG-TTC-TGA-CAT-3′ (antisense ATCCCCAGCCGGTTCTGACAT; listed as DNA, chemistry not fully specified) [antisense p21 ODN]
p21 level by immunoblot (p21 [1]): marked, dose-dependent attenuation | p21 staining by immunohistochemistry (p21 [1]; [3]): decreased p21 staining | p21 level by immunoblot (p21 [2]): marked, dose-dependent attenuation | p21 staining by immunohistochemistry (p21 [2]; [3]): decreased p21 staining

5′-GACATCACCAGGATCGGACAT-3′
growth of Met-1 cells in culture (Met-1 cells): did not affect growth | DNA synthesis upon stimulation with PDGF or serum (A431 cells; 0 to 400 nM oligodeoxynucleotide): no significant change | difference in DNA synthesis between sense and antisense (A431 cells; up to 800 nM): no difference

5′-TGG ATC CGA CAT GTC AGA-3′ (dT*dG*dG*dA*dT*dC*dC*dG*dA*dC*dA*dT*dG*dT*dC*dA*dG*dA) [random sequence control oligonucleotide, reference compound]
p21 level by immunoblot (p21 [1]): moderate decrease | p21 level by immunoblot (p21 [2]): inhibitory effect
